Test results from patent US20120010206A1, “IMIDAZOLOPYRIDINE COMPOUNDS USEFUL FOR THE TREATMENT OF DEGENERATIVE AND INFLAMMATORY DISEASES” (priority 2006, published 2012).

Tested on: MMP1 expression by complex trigger activated SFs
Test: MMP assay: MMP1 expression (ELISA) by SFs activated with the 'complex trigger'
Assay type: cell-based
Conditions: Homo sapiens; SFs activated with supernatant of TNF-α-treated THP-1 cells (complex trigger), 48 hrs, FIG. 3; read-out: IC50 of reduction of MMP1 expression by SFs
Description: A 384-well format ELISA for measurement of MMP1 is developed. Various primary antibodies are tested, as well as various ELISA protocols. The following protocol is developed and validated to measure MMP1 levels in SF supernatant in 384 well plates: white Lumitrac 600 384 well plates (Greiner) are coated with 2 μg/mL anti-MMP1 antibody MAB1346 (Chemicon). The antibody is diluted in buffer 40 (1.21 g Tris base (Sigma), 0.58 g NaCl (Calbiochem) and 5 mL 10% NaN3 (Sigma) in 1 L milliQ water and adjusted to pH 8.5). After overnight incubation at 4° C., plates are washed with PBS (80 g NaCl, 2 g KCl (Sigma), 11.5 g Na2HPO4.7H2O and 2 g KH2PO4 in 10 L milliQ; pH 7.4) and blocked with 100 μL/well Casein buffer (2% Casein (VWR International) in PBS). Next day, casein buffer is removed from ELISA plates and replaced by 50 μL/well EC buffer (4 g casein, 2.13 g Na2HPO4 (Sigma), 2 g bovine albumin (Sigma), 0.69 g NaH2PO4.H2O (Sigma), 0.5 g CHAPS (Roche), 23.3 g NaCl, 4 mL 0.5 M EDTA pH 8 (Invitrogen), 5 mL 10% NaN3 in 1 L milliQ and adjusted to pH 7.0). 0.25 mM DTT (Sigma) is added to the thawed sample plates. After removal of the EC buffer, 20 μL of sample is transferred to the ELISA plates. […] Readout is performed on the Luminoscan Ascent Luminometer (Labsystems) with an integration time of 200 msec or with an Envision reader (Perkin Elmer). […]

- IC50: ~1 nM
Structure (SMILES): C[C@@H]1C[C@H]2[C@@H]3CCC4=CC(=O)C=C[C@]4(C)[C@@]3(F)[C@@H](O)C[C@]2(C)[C@@]1(O)C(=O)CO [dexamethasone]
